# Results reported in patent US20250235476A1, “METHODS AND COMPOSITIONS THAT ARE ALTERNATIVES TO ANTIBIOTICS” (priority 2022, published 2025).
# Tested on: non-specific upper respiratory infection (URI)
# Experiment: Randomized double-blind placebo-controlled clinical trial: Days To Recovery (DTR)
# Assay type: in vivo, human
# Settings: added to EZC during acute phase of illness
# Method: Methods: A total of 360 patients across the United States were enrolled and randomized in a double-blind manner across two intervention groups, EZC, EZCD, and one placebo group. The study was conducted utilizing a smartphone-based app to screen, enroll and capture study data of the participants. Once a study participant reported the first symptoms of a URI, they were advised to take the intervention as directed and complete the daily symptom survey score until their symptoms resolved.
# A total of 360 individuals, male or female over 18 years old, were enrolled by a third-party clinical research organization (CRO), to participate in the study. […] The placebo was composed of rice concentrate.
# The study was conducted with the CRO's technology platform utilized to screen, enroll and capture study data of the participants.
# Once a study participant reported the first symptoms of a URI, they were advised to take the intervention (i.e., placebo, EZC, or EZCD) taper dosed over a five-day period.
# DTR is a metric that measures the total number of days in which a patient is experiencing symptoms of an illness while taking the intervention or placebo. DTR also directly lends itself for use in a log-rank analysis, which is used to compute statistical significance.
# The primary limitation of DTR arises from the heterogeneous nature of the illness and the patient's unique recovery. […]
substance,measurement,value
vitamin D,effect of addition of vitamin D on illness duration or symptom severity,neither benefited nor harmed
